Columns and labels:
[1] = tested on: HLA-A*24:02 transgenic mouse; assay: In vivo adjuvant activity, CTL induction with vaccine f, IFNγ ELISPOT (Test 19); details: 0.4 nmol per body added to vaccine f versus no compound; twice
Description: The in vivo adjuvant activity of the compound of Example 2 was evaluated in the following procedure. To a vaccine prepared by mixing Peptide SEQ ID No. 5 prepared in Reference example 19 with a preliminarily-emulsified composition (hereinafter, referred to as “vaccine f”) was added the compound prepared in Example 2 to prepare a vaccine. The vaccine was administered to a HLA-A*24:02 transgenic mouse, and the adjuvant activity of the vaccine was evaluated by the method of testing antigen-specific CTL induction. The CYTWNQMNL (SEQ ID No. 2) in Peptide SEQ ID No. 5 corresponds to an antigen peptide derived from an HLA-A*24:02-restricted WT1 protein.
The character for inducing CTLs specific to the antigen peptide (SEQ ID No. 2) by vaccine f was evaluated by measuring whether IFNγ can be produced upon stimulation of splenocytes from the mouse with the peptide. In addition, the character for exerting in vivo adjuvant activity by the compound in Example 2 was evaluated by comparing the number of CTLs induced by vaccine f and the number of CTLs induced by the vaccine prepared by adding the compound prepared in Example 2 to vaccine f, and checking presence or absence of the increase on the number.
Specifically, Peptide of SEQ ID No. 5 was dissolved in DMSO, and then diluted with water for injection to concentrations of 3 mg/mL. […]

Antigen-Specific CTL = assay: Immune response of antigen-specific CTL for peptide and tumor cell, vaccine b (Test 12); format: in vivo, mouse
Description: Vaccine b prepared like Test 8 was injected to a HLA-A*02:01 transgenic mouse intradermally at the tail base area in an amount for administering 300 μg of Compound of formula 4 per body and 225 μg of Peptide SEQ ID No. 3 per body. Or, in the step of preparing vaccine b, the compound prepared in Example 2 was added to the diluted peptide solution to prepare a vaccine, and the prepared vaccine was injected to a HLA-A*02:01 transgenic mouse intradermally at the tail base area in an amount for administering 300 μg of Compound of formula 4 per body, 225 μg of Peptide SEQ ID No. 3 per body, and 325 ng of the compound prepared in Example 2 per body. One week later, the mice were sacrificed with CO2 gas, and then spleens removed from the mice. A splenocyte suspension was prepared from the spleens with CTM. Like Test 6, Peptide (SEQ ID No. 1) was added to the splenocyte-containing ELISPOT plate, and the plate was incubated overnight at 37° C. under an atmosphere of 5% CO2 to re-stimulate the peptide in vitro. Then, after removal of the supernatant from the wells, stained spots on the ELISPOT plate were counted. […] The concentration of mouse IFN-γ in the culture supernatant was measured with an ELISA kit.

SMILES: CCCCOc1nc(N)c2[nH]c(=O)n(Cc3ccc(CN(C)CCOCCOCCOCCOCCO)nc3)c2n1 [Example 2, 6-amino-2-butoxy-9-{[6-(16-hydroxy-2-methyl-5,8,11,14-tetraoxa-2-azahexadecan-1-yl)pyridin-3-yl]methyl}-7,9-dihydro-8H-purin-8-one-trifluoroacetate]
- CTL counts responsive to Peptide of SEQ ID No. 2 [1]: more
- CTLs specific to Peptide (SEQ ID No. 1) in splenocyte, relative to vaccine b without compound (Antigen-Specific CTL; IFN-γ ELISPOT, 325 ng per body in vaccine b, one week later): 1.8 times
- amount of IFN-γ produced from the CTL, relative to vaccine b without compound (Antigen-Specific CTL; about three days culture with LLC-HHD-WT1 tumor cells and Peptide SEQ ID No. 1, ELISA, average of 3 wells): 8.7 times
